# Reference: patent publication US10995177B2 (priority 2018, dated 2021)
# Tests used:
# K. pneumoniae 9170 [1] = test: Resistance development by serial passaging at sub-lethal concentrations; assay type: cell-based, Klebsiella pneumoniae
# Method: To test bacterial resistance and resistance prevention, a sub-lethal dose (so as to not kill all bacteria) of the respective antimicrobials was repeatedly applied to K. pneumoniae samples for 24 hours at each passage, wherein the bacteria were allowed to replicate and/or mutate. MIC values of the respective antimicrobials were then measured after each repetition to monitor MIC changes. An increase in MIC value indicates development of resistance in the bacteria. In particular, samples of K. pneumoniae 9170 bacteria were first exposed to the respective antimicrobials (e.g., All polymers having Structures I, IV and V, imipenem and levofloxacin) for the determination of MICs as described above. Subsequently, 50 μL of bacteria from wells of 0.5×MIC were harvested and grown overnight, and then subjected to MIC determination for up to 20 similar serial passages (e.g., 20 single applications once a day for 20 days).
# Unfortunately, antibiotic resistance has raised a global concern over the past few years.
# K. pneumoniae 9170 [2] = test: In vivo efficacy (ED50/ED95) in bacteria-caused lung infection mouse model; set-up: species or system mice; conditions: Klebsiella pneumoniae, 9170, ip
# Method: In this regard, immunosuppressed mice (7 weeks old) were used for the following in vivo studies. Immunosuppression was induced by intraperitoneal injection of 200 mg/kg cyclophosphamide 4 days prior to infection. The mice were anesthetized by intraperitoneal injection of 1% pentobarbital (40 mg/kg, Sigma). The mice were then infected with K. pneumoniae 9170 to determine the minimum lethal dose for subsequent effective does and efficacy testing. Overnight cultures of K. pneumoniae 9170 were harvested and suspended in PBS. Subsequently, the cyclophosphamide-pretreated mice were intranasally injected with 25.0 μL of the bacterial suspension at designated doses (e.g., 1.0×10^8, 2.5×10^8, 5×10^8, 1.0×10^9, 2.0×10^9 CFU/mL, six mice per group). The minimum lethal dose (LD), the lowest concentration sufficient to cause 100% mortality, was determined from the survival rate of mice at 5 days post-infection by the BLISS method.
# The effective doses ED50 and ED95 doses of the respective polymers and imipenem for comparison, were tested using a bacteria-caused lung infection mouse model as follows. Firstly, a bacterial suspension with the minimum lethal dose (25.0 μL) was introduced to the above described cyclophosphamide-pretreated mice intranasally. […] The number of surviving mice in each group was recorded for 5.0 day to estimate ED50 and ED95 via the BLISS method.
# [3] = tested on: MDR clinical isolates of K. pneumoniae, E. coli, A. baumannii, P. aeruginosa, E. faecium and MRSA; test: MIC by broth microdilution against different types and strains of MDR clinically isolated bacteria; assay type: cell-based; conditions: Gram-negative and Gram-positive MDR clinical isolates
# Method: The MICs of the guanidinium functionalized polymers and the respective antibiotics against the clinical isolates were measured via the broth microdilution method. In accordance with the broth microdilution method, the MDR microbes including one or more strains of K. pneumoniae, E. coli, A. baumannii, P. aeruginosa, E. coli, E. faecium, and MRSA were harvested in mid exponential growth phase after grown overnight in Mueller-Hinton (MH) agar plates at 37° C. The antimicrobial agents were prepared in MH broth (MHB) at various concentrations. The bacteria suspensions were then diluted with phosphate-buffer saline (PBS, PH 7.4) to adjust the turbidity approximately to the Standard McFarland 0.6, which corresponds to the concentration of 1×10^8 colony-forming unit (CFU)/mL, after which the bacteria suspension was further diluted by 100-fold with MHB (1×10^6 CFU/mL). Subsequently, equal volumes (100 microliters (μL)) of bacterial suspension and agent solution prepared previously were mixed in each well of a 96-well plate and incubated for 18 h at 37° C. Broth containing bacteria alone was employed as the negative control, and each MIC was tested in triplicate.
# To facilitate comparison, imipenem and vancomycin, typical first-line therapies against Gram-negative and Gram-positive pathogens, were employed as standards or control antibiotics.
Compound,increase of MIC (K. pneumoniae 9170 [1]; by the 7th passage),increase of MIC (K. pneumoniae 9170 [1]; by the 20th passage),increase of MIC (K. pneumoniae 9170 [1]; by the 11th passage),ED50 (K. pneumoniae 9170 [2]),spectrum of antibacterial activity [3]
C[C@H]1COc2c(N3CCN(C)CC3)c(F)cc3c(=O)c(C(=O)O)cn1c23 [levofloxacin],2 times,16 fold,–,–,–
C[C@@H](O)[C@H]1C(=O)N2C(C(=O)O)=C(SCCN=CN)C[C@H]12 [imipenem],–,4 fold,2 times,5.93 mg/kg,–
CN[C@H](CC(C)C)C(=O)N[C@H]1C(=O)N[C@@H](CC(N)=O)C(=O)N[C@H]2C(=O)N[C@H]3C(=O)N[C@H](C(=O)N[C@H](C(=O)O)c4cc(O)cc(O)c4-c4cc3ccc4O)[C@H](O)c3ccc(c(Cl)c3)Oc3cc2cc(c3O[C@@H]2O[C@H](CO)[C@@H](O)[C@H](O)[C@H]2O[C@H]2C[C@](C)(N)[C@H](O)[C@H](C)O2)Oc2ccc(cc2Cl)[C@H]1O [vancomycin],–,–,–,–,only demonstrated efficacy against Gram-positive strains
